Assay results taken from patent US10975082B2, “Inhibitor of FLT3 kinase and use thereof” (PRECEDO PHARMACEUTICALS CO., LTD, priority 2016, dated 2021).

Columns and labels:
Assay type in all cases: cell-based
MOLM-14 = experiment: Cancer cell proliferation, Cell Titer-Glo, GI50; conditions: Homo sapiens; MOLM-14, 72 hours
Procedure: (§1) Compounds of the invention were evaluated for their inhibitory effects on proliferation of cancer cells as well as the selectivity thereof by testing their effects on growth of cancer cells (Table 2).
(§2) In this example the following cells were selected: human acute myeloid leukemia cells MV-4-11 (expressing FLT3[ITD] mutant gene), human acute myeloid leukemia cells MOLM-13 (expressing FLT3[ITD] mutant gene and wild-type FLT3 gene), human acute myeloid leukemia cells MOLM-14 (expressing FLT3[ITD] mutant gene and wild-type FLT3 gene), human acute myeloid leukemia cells OCI-AML3 (expressing FLT3[A680V] mutant gene), human acute myeloid leukemia cells U937 (expressing wild-type FLT3 gene), and mouse pro-B cells BaF3, and the above cells were purchased from ATCC.
(§3) Then the number of viable cells was determined by quantification of ATP in living cells using Cell Titer-Glo® (Promega, the USA) Luminescent Cell Viability Assay kit and thereby GI50 was calculated.

MV-4-11 = experiment: Cancer cell proliferation, Cell Titer-Glo, GI50; conditions: Homo sapiens, MV4-11; MV-4-11, 72 hours
Procedure: as §1, §2, §3

U937 = experiment: Cancer cell proliferation, Cell Titer-Glo, GI50; conditions: Homo sapiens, U-937; U937, 72 hours
Procedure: as §1, §2, §3

BaF3-FLT3 [ITD] = experiment: Cell proliferation, Cell Titer-Glo, GI50; conditions: Mus musculus, Ba/F3 FLT3-ITD, 72 hours
Procedure: as §1
(§4) Mouse BaF3-FLT3[ITD] (stably expressing FLT3[ITD] mutant activated kinase), mouse tel-BaF3-FLT3-D835Y (stably expressing FLT3[D835Y]mutant activated kinase), mouse tel-BaF3-BMX (stably expressing BMX kinase), mouse tel-FLT3-BaF3 (stably expressing FLT3 kinase), mouse BaF3-FLT3-ITD-D835Y (stably expressing FLT3[ITD+D835Y]mutant activated kinase), mouse BaF3-FLT3-ITD-F691L (stably expressing FLT3[ITD+F691L]mutant activated kinase), mouse tel-cKIT-BaF3 (stably expressing cKIT kinase), mouse BaF3-tel-cKit-N882K (stably expressing cKIT-N882K mutant activated kinase), mouse BaF3-tel-cKit-D816V (stably expressing cKIT-D816V mutant activated kinase), mouse BaF3-tel-cKit-T670I (stably expressing cKIT-T670I mutant activated kinase), mouse TPR-MET-BaF3 (stably expressing MET kinase), mouse tel-BaF3-EGFR (stably expressing EGFR kinase), mouse BaF3-FL-EGFR-L858R (stably expressing EGFR[L858R]mutant activated kinase), mouse tel-BaF3-BLK (stably expressing BLK kinase), mouse tel-JAK1-BaF3 (stably expressing JAK1 kinase) and the like were also used (see Table 2 for details). The above cell lines were all constructed by our laboratory according to the following method: the kinase region sequences of human FLT3/ITD, FLT3 D835Y, BMX, FLT3, FLT3[ITD+D835Y], FLT3[ITD+F691L], cKIT, cKIT [N882K], cKIT [D816V], cKIT [T670I], MET, EGFR, EGFR [L858R], BLK, JAK1, FLT3[K663Q], FLT3[D835V], FLT3[D835H], PDGFRa, PEGFRb, VEGFR2, JAK2, JAK3, ABL were amplified by PCR, and inserted into MSCV-Puro vectors with N-terminal TEL or TPR fragments (purchased from Clontech), respectively. The vectors were stably transfected into mouse BaF3 cells (purchased from ATCC) by means of retrovirus, and the growth factor IL-3 were removed, eventually obtaining cell lines that are transferred protein (FLT3/ITD, FLT3 D835Y, BMX, FLT3, FLT3[ITD D835Y], FLT3[ITD+F691L], cKIT, cKIT [N882K], cKIT [D816V], cKIT [T670I], MET, EGFR, EGFR [L858R], BLK, JAK1, FLT3[K663Q], FLT3[D835V], FLT3[D835H], PDGFRa, PEGFRb, VEGFR2, JAK2, JAK3, ABL)-dependent.
as §3

BaF3-TEL-FLT3 [D835Y] = experiment: Cell proliferation, Cell Titer-Glo, GI50; conditions: Mus musculus, 72 hours
Procedure: as §1, §4, §3

BaF3-TEL-FLT3 [K663Q] = experiment: Cell proliferation, Cell Titer-Glo, GI50; conditions: Mus musculus, 72 hours
Procedure: as §1, §4, §3

BaF3-TEL-FLT3 = experiment: Cell proliferation, Cell Titer-Glo, GI50; conditions: Mus musculus; BaF3-TEL-FLT3, 72 hours
Procedure: as §1, §4, §3

BaF3-TEL-cKIT = experiment: Cell proliferation, Cell Titer-Glo, GI50; conditions: Mus musculus, 72 hours
Procedure: as §1, §4, §3

BaF3 = experiment: Cell proliferation, Cell Titer-Glo, GI50; conditions: Mus musculus; BaF3, 72 hours
Procedure: as §1, §2, §3

BaF3-FLT3 [ITD + D835Y] = experiment: Cell proliferation, Cell Titer-Glo, GI50; conditions: Mus musculus, Ba/F3 FLT3-ITD, 72 hours
Procedure: as §1, §4, §3

BaF3-TEL-FLT3 [D835V] = experiment: Cell proliferation, Cell Titer-Glo, GI50; conditions: Mus musculus, 72 hours
Procedure: as §1, §4, §3

BaF3-TEL-cKit [D816V] = experiment: Cell proliferation, Cell Titer-Glo, GI50; conditions: Mus musculus, 72 hours
Procedure: as §1, §4, §3

BaF3-TEL-cKit [N882K] = experiment: Cell proliferation, Cell Titer-Glo, GI50; conditions: Mus musculus, 72 hours
Procedure: as §1, §4, §3

| SMILES | GI50 (MOLM-14) [nM] | GI50 (MV-4-11) [nM] | GI50 (U937) [µM] | GI50 (BaF3-FLT3 [ITD]) [nM] | GI50 (BaF3-TEL-FLT3 [D835Y]) [nM] | GI50 (BaF3-TEL-FLT3 [K663Q]) [µM] | GI50 (BaF3-TEL-FLT3) [nM] | GI50 (BaF3-TEL-cKIT) [nM] | GI50 (BaF3) [µM] | GI50 (BaF3-FLT3 [ITD + D835Y]) [nM] | GI50 (BaF3-TEL-FLT3 [D835V]) [nM] | GI50 (BaF3-TEL-cKit [D816V]) [µM] | GI50 (BaF3-TEL-cKit [N882K]) [nM] |
| --- | --- | --- | --- | --- | --- | --- | --- | --- | --- | --- | --- | --- | --- |
| CC(C)(C)c1cc(NC(=O)Nc2ccc(-n3nc(-c4ccc(N5CCOCC5)nc4)c4c(N)ncnc43)cc2)no1 [Compound 28, 1-(4-(4-amino-3-(6-morpholinopyridin-3-yl)-1H-pyrazolo[3,4-d]pyrimidin-1-yl)phenyl)-3-(5-(tert-butyl)isoxazol-3-yl)urea] | 2 | 1 | > 10 | 2 | 3 | > 10 | 4 | 41 | 6.9 |  |  |  |  |
| CC(C)(C)c1cc(NC(=O)Nc2ccc(-n3nc(-c4ccc(NS(C)(=O)=O)cc4)c4c(N)ncnc43)cc2)no1 [Compound 27] | 1 | 0.6 | > 10 | 1 | 600 | > 10 | 2 | 120 | > 10 | 600 | 22 | > 10 | 51 |
| Nc1ncnc2c1c(-c1ccc(OCCN3CCOCC3)cc1)nn2-c1ccc(NC(=O)Nc2ccc(Cl)c(C(F)(F)F)c2)cc1 [Compound 12, 1-(4-(4-amino-3-(4-(2-morpholinoethoxy)phenyl)-1H-pyrazolo[3,4-d]pyrimidin-1-yl)phenyl)-3-(4-chloro-3-(trifluoromethyl)phenyl)urea] | 3 | 3 | 2.4 | 3 | 1600 | 5.4 | 12 | 140 | 3 | 1600 | 210 | 4 | 96 |
| CC(C)(C)c1cc(NC(=O)Nc2ccc(-n3nc(-c4ccc(CN5CCOCC5)cc4)c4c(N)ncnc43)cc2)no1 [Compound 23, 1-(4-(4-amino-3-(4-(morpholinomethyl)phenyl)-1H-pyrazolo[3,4-d]pyrimidin-1-yl)phenyl)-3-(5-(tert-butyl)isoxazol-3-yl)urea] | < 0.3 | < 0.3 | 4.1 |  | 1 | 5.4 | < 0.3 | 12 | 5.9 |  |  |  |  |
| CCN1CCN(Cc2ccc(-c3nn(-c4ccc(NC(=O)Nc5cc(C(C)(C)C)on5)cc4)c4ncnc(N)c34)cc2)CC1 [Compound 20, 1-(4-(4-amino-3-(4-((4-ethylpiperazin-1-yl)methyl)phenyl)-1H-pyrazolo[3,4-d]pyrimidin-1-yl)phenyl)-3-(5-(tert-butyl)isoxazol-3-yl)urea] | < 0.3 | < 0.3 | 1.7 | 0.9 | 240 | 1.6 | 2 | 40 | 2.5 | 240 | 8 | 1.9 | 9 |
| CN(C)CCNC(=O)Nc1ccc(-n2nc(-c3ccc(OCCN4CCOCC4)cc3)c3c(N)ncnc32)cc1 [Compound 5, 1-(4-(4-amino-3-(4-(2-morpholinoethoxy)phenyl)-1H-pyrazolo[3,4-d]pyrimidin-1-yl)phenyl)-3-(2-(dimethylamino)ethyl)urea] | 130 | 82 | 9.2 | 100 | 1300 | 3.7 | 320 | 3500 | 3.8 | 1300 | 1700 | 8.3 | 3300 |
| CC(C)CNC(=O)Nc1ccc(-n2nc(-c3ccc(OCCN4CCOCC4)cc3)c3c(N)ncnc32)cc1 [Compound 4, 1-(4-(4-amino-3-(4-(2-morpholinoethoxy)phenyl)-1H-pyrazolo[3,4-d]pyrimidin-1-yl)phenyl)-3-isobutylurea] | 2500 | 2800 | > 10 | 1100 | > 10000 | > 10 | 5400 | > 10000 | > 10 | > 10000 | > 10000 | > 10 | > 10000 |
| CC(C)(C)c1ccc(NC(=O)Nc2ccc(-n3nc(-c4ccc(OCCN5CCOCC5)cc4)c4c(N)ncnc43)cc2)cc1 [Compound 10, 1-(4-(4-amino-3-(4-(2-morpholinoethoxy)phenyl)-1H-pyrazolo[3,4-d]pyrimidin-1-yl)phenyl)-3-(4-(tert-butyl)phenyl)urea] | 81 | 63 | 8.5 | 24 | 4400 | > 10 | 190 | 990 | > 10 | 4400 | 4500 | 4.4 | 1100 |
| CC(C)(C)c1cc(NC(=O)Nc2ccc(-n3nc(-c4cccnc4)c4c(N)ncnc43)cc2)no1 [Compound 26, 1-(4-(4-amino-3-(pyridin-3-yl)-1H-pyrazolo[3,4-d]pyrimidin-1-yl)phenyl)-3-(5-(tert-butyl)isoxazol-3-yl)urea] | 1 | < 0.3 | > 10 | 0.7 | 610 | > 10 | 1 | 38 | > 10 | 610 | 20 | 7.6 | 29 |
